Reference: patent US4985560A, “Pyridazino(4,5-b)indolizines” (American Home Products Corporation, priority 1990, dated 1991)

Legend:
[1] = system: scopolamine-induced hyperactivity (muscarinic M1-mediated effect); assay: Reduction of scopolamine-induced hyperactivity (locomotor activity chambers); assay type: in vivo, rat; conditions: route not stated
Method: The motor activity chambers utilize infrared detectors to assess movement in 3 axes. Total activity measures (vertical+horizontal activity) were collected in 15 minute intervals for 1 hour post-injection. Total activity measures were cumulated across all time intervals for statistical analysis.

[2] = system: male Sprague-Dawley (Charles River) rats; assay: Radial arm maze test, scopolamine impairment; assay type: in vivo, rat
Source text: The compound of Example 1 was also studied in the radial arm maze test where male Sprague-Dawley (Charles River) rats on a 23-hour food deprivation schedule were trained in an eight arm radial maze with all arms baited. Each session consisted of two maze exposures, with a time limit of 500 seconds for each exposure. After four correct choices (first exposure), each animal was removed from the maze for one hour then returned with only the remaining four arms baited (second exposure). Choice errors, consisting of delay errors (re-entry into any of the four arms chosen during the first exposure) and current errors (re-entry into any of the four arms chosen during the second exposure), as well as total errors were recorded. Durations for each exposure were also recorded. Statistical analysis were preformed using a One-Way Anova with Dunnetts T-Test comparisons.
All compounds were solubilized in distilled water.

memory loss = conditions: rats; cited from earlier work
[3] = system: Alzheimer's patients and healthy elderly patients; conditions: due to side-effects, short duration of action, narrow active dose range; cited from earlier work
[4] = Table 2, arecoline 10.0 mg/kg i.p., scopolamine-impaired
[5] = first experiment (Table 2), versus scopolamine
[6] = first experiment (Table 2), versus vehicle

COC(=O)C1=CCCN(C)C1 [Arecoline, arecoline]
dose active in scopolamine-induced hyperactivity test [1]: about 5.4 mg/kg | Mean Errors, Current [2, 4]: 0.75 | Mean Errors, Delay [2, 4]: 1.50 | Mean Errors, Total [2, 4]: 2.25 | Mean Time, Current [2, 4]: 2.32 min | Mean Time, Delay [2, 4]: 1.50 min | Mean Time, Total [2, 4]: 4.06 min | scopolamine impairment in delay, current and total errors [2, 5]: significant reduction in scopolamine impairment in delay, current and total errors | time compared to scopolamine [2, 5]: no significant time reduction versus scopolamine | delay, current and total errors versus vehicle [2, 6]: did not | time measures versus vehicle [2, 6]: significant time increase versus vehicle | reversal of muscarinic antagonist-induced memory deficit, rats (memory loss): can be reversed | clinical efficacy [3]: neither physostigmine nor arecoline have clinical efficacy
